Measured values from EP4810494A1, “HPK1 DEGRADATION AGENT AND USE THEREOF IN FIELD OF MEDICINE” (Haisco Pharmaceutical Group Co., Ltd., priority 2023, dated 2025).
pIC50: −log10 of the molar value. Structures can show the parent of a compound that is named as a salt.

Each molecule was assayed against T1, HPK1 kinase (Homo sapiens, UniProt Q92918) (assay: HPK1 kinase assay (1 mM ATP)). Conditions: not given.
T1 construct: purchased Carna 07-410
T1 sequence (Q92918 1-346 limits assumed): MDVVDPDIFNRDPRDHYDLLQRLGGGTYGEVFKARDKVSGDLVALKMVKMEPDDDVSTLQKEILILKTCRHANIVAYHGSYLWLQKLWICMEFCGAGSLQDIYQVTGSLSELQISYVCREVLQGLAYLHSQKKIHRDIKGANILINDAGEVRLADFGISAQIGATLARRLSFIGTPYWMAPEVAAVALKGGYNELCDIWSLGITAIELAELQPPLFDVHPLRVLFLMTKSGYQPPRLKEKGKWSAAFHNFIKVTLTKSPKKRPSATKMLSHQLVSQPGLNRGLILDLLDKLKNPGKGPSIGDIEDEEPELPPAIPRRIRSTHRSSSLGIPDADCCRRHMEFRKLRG
Format: biochemical
Experimental: Test example 5: HPK1 kinase assay (1 mM ATP)
The kinase HPK1 (Carna, Cat.No 07-410) was prepared into 2× kinase solution using 1× kinase buffer. The substrate Fluorescein-PKC (Invitrogen, Cat. No. PV3506) and ATP (working concentration: 1 mM) (Sigma, Cat. No. 2383-5G) were prepared into 2× substrate solution using 1×kinase buffer. The detection reagent was diluted to 2-fold the final concentration using an antibody diluent. 100 nL of compounds at different concentrations and 5 µL of kinase solution were added to each well of a 384-well plate, and the mixture was incubated at room temperature for 10 minutes. After the incubation was completed, 5 µL of substrate solution was added to each well, and the resulting mixture was reacted at room temperature for 90 minutes. After the reaction was completed, 10 µL of detection reagent was added to each well to terminate the reaction, and the mixture was incubated at room temperature for 60 minutes. Fluorescence readings were detected using an Envision instrument with excitation at 320 nm and emission at 520 nm and 495 nm. IC50 value was calculated using XLFit excel add-in version 5.4.0.8 software. The calculation formula of the inhibition rate was shown in formula 5-1, wherein max is the Ratio of the DMSO control, min is the Ratio of the negative control without enzyme, and sample is the Ratio of the compound. Ratio = RFU520nm /RFU495nm [formula] Inhibition% = (max−sample)/(max−min) × 100% [formula] Table 5-1 Inhibitory activity of test compounds against HPK1 kinase

**Q.** `CN(C)Cc1nc(Nc2ccc(-c3cnc4cc(F)ccn34)c3c2C(=O)NC3)ccc1N1CCC(CN2CCN(c3ccc(N4CCC(=O)NC4=O)c(F)c3)CC2)CC1` [Trifluoroacetic acid salt of compound 12] was tested. Which pIC50 did it give?
**A.** Its pIC50 is > 7.30.

**Q.** How did the pIC50 turn out when `O=C1CCC(c2ccc(N3CCC(CN4CCC(c5ccc(Nc6ccc(-c7cnc8cc(F)ccn78)c7c6C(=O)NC7)nc5)CC4)CC3)cc2F)C(=O)N1` (stereo not shown) [Trifluoroacetic acid salt of compound 17] was run?
**A.** The pIC50 was > 7.30.

**Q.** How did the pIC50 turn out when `O=C1CCN(c2ccc(N3CCC(CN4CCC(c5ccc(Nc6ccc(-c7cnc8cc(F)ccn78)c7c6C(=O)NC7)nc5)CC4)CC3)cc2F)C(=O)N1` [Trifluoroacetic acid salt of compound 18] was run?
**A.** The pIC50 was > 7.30.

**Q.** How did the pIC50 turn out when `O=C1CCN(c2cc3c(cc2F)N2CCN(CC4CN(c5ccc(Nc6ccc(-c7cnc8cc(F)ccn78)c7c6C(=O)NC7)nc5)C4)C[C@H]2CC3)C(=O)N1` [Trifluoroacetic acid salt of compound 21] was run?
**A.** The pIC50 was > 7.30.

**Q.** With `O=C1CCN(c2cc3c(cc2F)N2CCN(CC4CN(c5ccc(Nc6ccc(-c7cnc8cc(F)ccn78)c7c6C(=O)NC7)nc5)C4)C[C@@H]2CC3)C(=O)N1` [Trifluoroacetic acid salt of compound 22] as the molecule, how does the pIC50 read?
**A.** Its pIC50 is > 7.30.

Same assay, conditions: ATP working concentration: 1 mM

**Q.** `CN(C)Cc1nc(Nc2ccc(-c3cnc4cc(F)ccn34)c3c2C(=O)NC3)ccc1N1CCC(CN2CCN3c4cc(F)c(N5CCC(=O)NC5=O)cc4CC[C@H]3C2)CC1` [Trifluoroacetic acid salt of compound 10] was tested. Which pIC50 did it give?
**A.** The pIC50 was > 7.30.

**Q.** With `CN(C)Cc1nc(Nc2ccc(-c3cnc4cc(F)ccn34)c3c2C(=O)NC3)ccc1N1CCC(CN2CCN3c4cc(F)c(N5CCC(=O)NC5=O)cc4CC[C@@H]3C2)CC1` [Trifluoroacetic acid salt of compound 11] as the molecule, how does the pIC50 read?
**A.** The pIC50 was > 7.30.

**Q.** With `O=C1CCN(c2cc3c(cc2F)N2CCN(CC4CCN(c5ccc(Nc6ccc(-c7cnc8cc(F)ccn78)c7c6C(=O)NC7)nc5CN5CC(F)(F)C5)CC4)C[C@H]2CC3)C(=O)N1` [Trifluoroacetic acid salt of compound 23] as the molecule, how does the pIC50 read?
**A.** The pIC50 was > 7.30.

**Q.** `O=C1CCN(c2cc3c(cc2F)N2CCN(CC4CCN(c5ccc(Nc6ccc(-c7cnc8cc(F)ccn78)c7c6C(=O)NC7)nc5CN5CC(F)(F)C5)CC4)C[C@@H]2CC3)C(=O)N1` [Trifluoroacetic acid salt of compound 24] was tested. Which pIC50 did it give?
**A.** Its pIC50 is > 7.30.

**Q.** With `O=C1CCN(c2cc3c(cc2F)N2CCN(CC4CCN(c5ccc(Nc6ccc(-c7cnc8cc(F)ccn78)c7c6C(=O)NC7)nc5CN5CCC(F)(F)C5)CC4)CC2CC3)C(=O)N1` (stereo not shown) [Trifluoroacetic acid salt of compound 25] as the molecule, how does the pIC50 read?
**A.** The pIC50 was > 7.30.

**Q.** `O=C1CCN(c2cc3c(cc2F)N2CCN(CC4CCN(c5ccc(Nc6ccc(-c7cnc8cc(F)ccn78)c7c6C(=O)NC7)nc5CN5CCC(F)(F)C5)CC4)C[C@H]2CC3)C(=O)N1` [Trifluoroacetic acid salt of compound 28] was tested. Which pIC50 did it give?
**A.** The pIC50 was > 7.30.

**Q.** `O=C1CCN(c2cc3c(cc2F)N2CCN(CC4CCN(c5ccc(Nc6ccc(-c7cnc8cc(F)ccn78)c7c6C(=O)NC7)nc5CN5CC[C@H](F)C5)CC4)C[C@H]2CC3)C(=O)N1` [Trifluoroacetic acid salt of compound 29] was tested. Which pIC50 did it give?
**A.** The pIC50 was > 7.30.

**Q.** How did the pIC50 turn out when `O=C1CCN(c2cc3c(cc2F)N2CCN(CC4CCN(c5ccc(Nc6ccc(-c7cnc8cc(F)ccn78)c7c6C(=O)NC7)nc5CN5CC[C@@H](F)C5)CC4)C[C@H]2CC3)C(=O)N1` [Trifluoroacetic acid salt of compound 30] was run?
**A.** Its pIC50 is > 7.30.

**Q.** `O=C1CC[C@H](NC(=O)c2cc3c(cc2F)N2CCN(C4CC5(CCN(c6ccc(Nc7ccc(-c8cnc9cc(F)ccn89)c8c7C(=O)NC8)nc6)CC5)C4)C[C@@H]2CC3)C(=O)N1` [Trifluoroacetic acid salt of compound 33] was tested. Which pIC50 did it give?
**A.** Its pIC50 is > 7.30.

Same assay, conditions: ATP working concentration: 1 mM; read-out: IC50

**Q.** `O=C1CCC(c2ccc(N3CCN(CC4CCN(c5ccc(Nc6ccc(-c7cnc8cc(F)ccn78)c7c6C(=O)NC7)nc5)CC4)CC3)cc2F)C(=O)N1` (single isomer, unassigned) [Compound 1-2] was tested. Which pIC50 did it give?
**A.** Its pIC50 is > 7.30.

**Q.** With `CN(C)Cc1nc(Nc2ccc(-c3cnc4cc(F)ccn34)c3c2C(=O)NC3)ccc1C1CCN(CC2(F)CCN(c3ccc(N4CCC(=O)NC4=O)c(F)c3)CC2)CC1` [Compound 38] as the molecule, how does the pIC50 read?
**A.** The pIC50 was > 7.30.
